# Results: patent publication US10111428B2, “Nematocide containing lactonic ring and preparation method and application thereof” (priority 2015, dated 2018)
# Test system: Earthworm
# Test: Earthworm toxicity test (Test Guidelines on Environmental Safety Assessment for Chemical Pesticides)
# Format: in vivo
# Details: cell adds 'low toxicity'
# Protocol: (§1) According to the earthworm and edaphon toxicity test procedures as prescribed in the Test Guidelines on Environmental Safety Assessment for Chemical Pesticides, earthworm and edaphon toxicity tests are conducted on compounds 1 to 60 from Table 1. The simulative usual dose of pesticide in the edaphon test is 40 ppm.
row,Compound,Earthworm Toxicity LC50 (14 d)
1,O=C1CC(C(=O)OCCC(F)=C(F)F)C(c2cc(F)ccc2F)O1 (stereo not drawn) [Compound 28],">10, low toxicity mg/L"
2,O=C1CC(C(=O)OCCC(F)=C(F)F)C(c2ccc(Oc3ccc(F)cc3)cc2)O1 (stereo not drawn) [Compound 55],">10, low toxicity mg/L"
3,O=C1CC(C(=O)OCCC(F)=C(F)F)C(c2cccc(Cl)c2)O1 (stereo not drawn) [Compound 14],">10, low toxicity mg/L"
4,O=C1CC(C(=O)OCCC(F)=C(F)F)C(c2cc(Cl)cc(Cl)c2Cl)O1 (stereo not drawn) [Compound 12],">10, low toxicity mg/L"
5,O=C1CC(C(=O)OCCC(F)=C(F)F)C(c2cc(Cl)cc(Cl)c2)O1 (stereo not drawn) [Compound 13],">10, low toxicity mg/L"
6,O=C1CC(C(=O)OCCC(F)=C(F)F)C(c2ccc(Cl)cc2Cl)O1 (stereo not drawn) [Compound 9],">10, low toxicity mg/L"
7,CCc1ccc(C2OC(=O)CC2C(=O)OCCC=C(F)F)cc1 (stereo not drawn) [Compound 4],">10, low toxicity mg/L"
8,O=C1CC(C(=O)OCCC(F)=C(F)F)C(c2ccc([N+](=O)[O-])cc2)O1 (stereo not drawn) [Compound 58],">10, low toxicity mg/L"
9,CCCc1ccc(C2OC(=O)CC2C(=O)OCCC(F)=C(F)F)cc1 (stereo not drawn) [Compound 5],">10, low toxicity mg/L"
10,CCCCc1ccc(C2OC(=O)CC2C(=O)OCCC(F)=C(F)F)cc1 (stereo not drawn) [Compound 6],">10, low toxicity mg/L"
11,Nc1ccccc1C1OC(=O)CC1C(=O)OCCC(F)=C(F)F (stereo not drawn) [Compound 59],">10, low toxicity mg/L"
12,O=C1CC(C(=O)OCCC(F)=C(F)F)C(c2c(Cl)cccc2Cl)O1 (stereo not drawn) [Compound 11],">10, low toxicity mg/L"
13,O=C1CC(C(=O)OCCC(F)=C(F)F)C(c2cc(Cl)ccc2Cl)O1 (stereo not drawn) [Compound 10],">10, low toxicity mg/L"
14,O=C1CC(C(=O)OCCC(F)=C(F)F)C(c2cccc(Oc3cccc(C(F)(F)F)c3)c2)O1 (stereo not drawn) [Compound 52],">10, low toxicity mg/L"
15,O=C1CC(C(=O)OCCC(F)=C(F)F)C(c2ccc(F)cc2)O1 (stereo not drawn) [Compound 20],">10, low toxicity mg/L"

# Test system: Nematode eggs
# Test: Plant pathogenic nematode inhibition test by dipping: nematode egg hatch inhibition (NY/T 1154.5-2006)
# Format: in vivo
# Details: in vivo
# Protocol: A plant pathogenic nematode inhibition test is conducted by dipping with the compounds in Table 1; and by referring to NY/T 1154.5-2006 (Part 5: Dipping Test for Insecticide Ovicidal Activity), the nematode egg hatch inhibition activity of the compounds is tested, as shown in Table 2: […]
row,Compound,LC50
1,O=C1CC(C(=O)OCCC(F)=C(F)F)C(c2cc(F)ccc2F)O1 (stereo not drawn) [Compound 28],13.23 µg/mL
2,O=C1CC(C(=O)OCCC(F)=C(F)F)C(c2ccc(Oc3ccc(F)cc3)cc2)O1 (stereo not drawn) [Compound 55],13.24 µg/mL
3,O=C1CC(C(=O)OCCC(F)=C(F)F)C(c2cccc(Cl)c2)O1 (stereo not drawn) [Compound 14],12.10 µg/mL
4,O=C1CC(C(=O)OCCC(F)=C(F)F)C(c2cc(Cl)cc(Cl)c2Cl)O1 (stereo not drawn) [Compound 12],12.30 µg/mL
5,O=C1CC(C(=O)OCCC(F)=C(F)F)C(c2cc(Cl)cc(Cl)c2)O1 (stereo not drawn) [Compound 13],15.46 µg/mL
6,O=C1CC(C(=O)OCCC(F)=C(F)F)C(c2ccc(Cl)cc2Cl)O1 (stereo not drawn) [Compound 9],10.36 µg/mL
7,CCc1ccc(C2OC(=O)CC2C(=O)OCCC=C(F)F)cc1 (stereo not drawn) [Compound 4],10.25 µg/mL
8,O=C1CC(C(=O)OCCC(F)=C(F)F)C(c2ccc([N+](=O)[O-])cc2)O1 (stereo not drawn) [Compound 58],10.07 µg/mL
9,CCCc1ccc(C2OC(=O)CC2C(=O)OCCC(F)=C(F)F)cc1 (stereo not drawn) [Compound 5],8.02 µg/mL
10,CCCCc1ccc(C2OC(=O)CC2C(=O)OCCC(F)=C(F)F)cc1 (stereo not drawn) [Compound 6],11.81 µg/mL
11,Nc1ccccc1C1OC(=O)CC1C(=O)OCCC(F)=C(F)F (stereo not drawn) [Compound 59],11.24 µg/mL
12,O=C1CC(C(=O)OCCC(F)=C(F)F)C(c2c(Cl)cccc2Cl)O1 (stereo not drawn) [Compound 11],13.30 µg/mL
13,O=C1CC(C(=O)OCCC(F)=C(F)F)C(c2cc(Cl)ccc2Cl)O1 (stereo not drawn) [Compound 10],10.80 µg/mL
14,O=C1CC(C(=O)OCCC(F)=C(F)F)C(c2cccc(Oc3cccc(C(F)(F)F)c3)c2)O1 (stereo not drawn) [Compound 52],10.12 µg/mL
15,O=C1CC(C(=O)OCCC(F)=C(F)F)C(c2ccc(F)cc2)O1 (stereo not drawn) [Compound 20],10.143 µg/mL

# Test system: Nematode J2
# Test: Plant pathogenic nematode inhibition test by dipping: second-stage juveniles
# Format: in vivo
# Details: in vivo
row,Compound,LC50
1,O=C1CC(C(=O)OCCC(F)=C(F)F)C(c2cc(F)ccc2F)O1 (stereo not drawn) [Compound 28],15.07 µg/mL
2,O=C1CC(C(=O)OCCC(F)=C(F)F)C(c2ccc(Oc3ccc(F)cc3)cc2)O1 (stereo not drawn) [Compound 55],15.36 µg/mL
3,O=C1CC(C(=O)OCCC(F)=C(F)F)C(c2cccc(Cl)c2)O1 (stereo not drawn) [Compound 14],13.01 µg/mL
4,O=C1CC(C(=O)OCCC(F)=C(F)F)C(c2cc(Cl)cc(Cl)c2Cl)O1 (stereo not drawn) [Compound 12],13.35 µg/mL
5,O=C1CC(C(=O)OCCC(F)=C(F)F)C(c2cc(Cl)cc(Cl)c2)O1 (stereo not drawn) [Compound 13],16.25 µg/mL
6,O=C1CC(C(=O)OCCC(F)=C(F)F)C(c2ccc(Cl)cc2Cl)O1 (stereo not drawn) [Compound 9],13.14 µg/mL
7,CCc1ccc(C2OC(=O)CC2C(=O)OCCC=C(F)F)cc1 (stereo not drawn) [Compound 4],10.24 µg/mL
8,O=C1CC(C(=O)OCCC(F)=C(F)F)C(c2ccc([N+](=O)[O-])cc2)O1 (stereo not drawn) [Compound 58],12.18 µg/mL
9,CCCc1ccc(C2OC(=O)CC2C(=O)OCCC(F)=C(F)F)cc1 (stereo not drawn) [Compound 5],9.777 µg/mL
10,CCCCc1ccc(C2OC(=O)CC2C(=O)OCCC(F)=C(F)F)cc1 (stereo not drawn) [Compound 6],13.45 µg/mL
11,Nc1ccccc1C1OC(=O)CC1C(=O)OCCC(F)=C(F)F (stereo not drawn) [Compound 59],13.24 µg/mL
12,O=C1CC(C(=O)OCCC(F)=C(F)F)C(c2c(Cl)cccc2Cl)O1 (stereo not drawn) [Compound 11],14.95 µg/mL
13,O=C1CC(C(=O)OCCC(F)=C(F)F)C(c2cc(Cl)ccc2Cl)O1 (stereo not drawn) [Compound 10],13.30 µg/mL
14,O=C1CC(C(=O)OCCC(F)=C(F)F)C(c2cccc(Oc3cccc(C(F)(F)F)c3)c2)O1 (stereo not drawn) [Compound 52],13.28 µg/mL
15,O=C1CC(C(=O)OCCC(F)=C(F)F)C(c2ccc(F)cc2)O1 (stereo not drawn) [Compound 20],12.532 µg/mL

# Test system: Edaphon
# Test: Edaphon toxicity test (Test Guidelines on Environmental Safety Assessment for Chemical Pesticides)
# Details: 15 d; 100 times of usual dose (simulative usual dose 40 ppm); cell adds 'low toxicity'
# Protocol: as §1
row,Compound,Edaphon Toxicity (15 d) (Inhibition ratio when added amount is 100 times of usual dose)
1,O=C1CC(C(=O)OCCC(F)=C(F)F)C(c2cc(F)ccc2F)O1 (stereo not drawn) [Compound 28],"<50%, low toxicity"
2,O=C1CC(C(=O)OCCC(F)=C(F)F)C(c2ccc(Oc3ccc(F)cc3)cc2)O1 (stereo not drawn) [Compound 55],"<50%, low toxicity"
3,O=C1CC(C(=O)OCCC(F)=C(F)F)C(c2cccc(Cl)c2)O1 (stereo not drawn) [Compound 14],"<50%, low toxicity"
4,O=C1CC(C(=O)OCCC(F)=C(F)F)C(c2cc(Cl)cc(Cl)c2Cl)O1 (stereo not drawn) [Compound 12],"<50%, low toxicity"
5,O=C1CC(C(=O)OCCC(F)=C(F)F)C(c2cc(Cl)cc(Cl)c2)O1 (stereo not drawn) [Compound 13],"<50%, low toxicity"
6,O=C1CC(C(=O)OCCC(F)=C(F)F)C(c2ccc(Cl)cc2Cl)O1 (stereo not drawn) [Compound 9],"<50%, low toxicity"
7,CCc1ccc(C2OC(=O)CC2C(=O)OCCC=C(F)F)cc1 (stereo not drawn) [Compound 4],"<50%, low toxicity"
8,O=C1CC(C(=O)OCCC(F)=C(F)F)C(c2ccc([N+](=O)[O-])cc2)O1 (stereo not drawn) [Compound 58],"<50%, low toxicity"
9,CCCc1ccc(C2OC(=O)CC2C(=O)OCCC(F)=C(F)F)cc1 (stereo not drawn) [Compound 5],"<50%, low toxicity"
10,CCCCc1ccc(C2OC(=O)CC2C(=O)OCCC(F)=C(F)F)cc1 (stereo not drawn) [Compound 6],"<50%, low toxicity"
11,Nc1ccccc1C1OC(=O)CC1C(=O)OCCC(F)=C(F)F (stereo not drawn) [Compound 59],"<50%, low toxicity"
12,O=C1CC(C(=O)OCCC(F)=C(F)F)C(c2c(Cl)cccc2Cl)O1 (stereo not drawn) [Compound 11],"<50%, low toxicity"
13,O=C1CC(C(=O)OCCC(F)=C(F)F)C(c2cc(Cl)ccc2Cl)O1 (stereo not drawn) [Compound 10],"<50%, low toxicity"
14,O=C1CC(C(=O)OCCC(F)=C(F)F)C(c2cccc(Oc3cccc(C(F)(F)F)c3)c2)O1 (stereo not drawn) [Compound 52],"<50%, low toxicity"
15,O=C1CC(C(=O)OCCC(F)=C(F)F)C(c2ccc(F)cc2)O1 (stereo not drawn) [Compound 20],"<50%, low toxicity"
